Literature values as cited in patent US7993683B2, “Compositions for the treatment of chronic degenerative inflammatory conditions” (Indena S.p.A., priority 2006, dated 2011).

What was measured:
[1] = tested on: TNF-induced enhancement of endothelial monocyte adesion; conditions: added to endothelial cell culture together with tumour necrosis factor (TNF)
[2] = tested on: pro-inflammatory cytokines

## C=C1CC[C@@H]2[C@](C)(CO)[C@H](O)CC[C@@]2(C)[C@@H]1C/C=C1/C(=O)OC[C@H]1O [andrographolide]
[1]
  TNF-induced enhancement of endothelial monocyte adesion: concentration depended reduction
[2]
  synthesis of pro-inflammatory cytokines: inhibits
